Two substances from article PMC10347550, “Cyclic Ruthenium-Peptide Conjugates as Integrin-Targeting Phototherapeutic Prodrugs for the Treatment of Brain Tumors” (Journal of the American Chemical Society, 2023) can be followed below.

Data set [1] can be described thus: Nanoaggregation in Opti-MEM by DLS and TEM. It is filed as physicochemical. To be noted: dark; for DLS size distribution: 24 h. The method, then: DLS was used to determine the distribution of particles in complex solutions (50 μM) in Opti-MEM (Gibco complete medium 11058-021, supplemented with 0.2% v/v penicillin/streptomycin (P/S), and 1% v/v glutamine) with or without 2.5% fetal calf serum (FCS) proteins via a ZEN1600 Zetasizer Nano instrument (Malvern Instruments Limited) operated with a 633 nm laser.
The TEM experiments were carried out with a TEM JEOL 1010:100 kV transmission electron microscope using a Formvar/carbon-coated copper grid (Polysciences Inc.). For the preparation of samples, a 1 mM stock aqua solution was diluted to 50 μM by Opti-MEM, after which, each drop (15 μL) of the complex solution was deposited on a parafilm (Bemis, HS234526C). The grids (Electron Microscopy Sciences, 71137) were placed on top of the drops for 5 min and then the excess liquid on the grid was removed with filter paper and air dried for 2 h for the TEM measurement. The TEM measurements were carried out under vacuum conditions.

In data set [2] the test system is A549 cells. The experiment in a line: 2D cytotoxicity assay, 24 h DLI & no wash, SRB endpoint. In kind it is cell-based, human. Conditions: for pEC50: A549 2D monolayer, not washed, n = 3. The method, then:
(§1) For each complex, two identical plates were prepared, one of which was irradiated with light, while the other was used as a dark control. […] Finally, at t = 96 h, 100 μL of cold trichloroacetic acid (10% w/v) was added to each well to fix the cells, and all plates were then transferred to a 4 °C refrigerator for 48 h before performing an SRB cell quantification endpoint assay.[72] Trichloroacetic acid was first removed and each plate was gently washed with demi water 3–5 times. Then, each well was dried in the air, and 100 μL of 0.6% SRB solution (0.6% w/v in 1% v/v acetic acid/H2O solution) was added into each well where it was allowed to stain for 30 min. Then, the plates were washed 3–5 times using an acetic acid solution (1% v/v). Once the plate was washed it was allowed to dry overnight. Then, 200 μL of 10 mM Tris base buffer was added to each well and the plate was allowed to sit on an orbital shaker for 0.5–16 h. After mixing, the absorbance of each well was determined by an M1000 Tecan Reader, reading at 510 nm. All experiments were conducted in independent biological triplicate. The obtained data were analyzed with Graphpad Prism 5 using the dose–response two-parameter Hill slope equation (eq 1) to obtain the half-maximal effective concentrations EC50 (defined as the concentration of drug that kills 50% of cells, compared to the untreated control). [drawing 1] 1

Data set [3] concerns U87MG cells. The description is as above. To be noted: for pEC50: U87MG 2D monolayer, not washed, SRB at 96 h, n = 3; for PI (EC50,dark/EC50,light): U87MG. It is filed as cell-based, human. The protocol:
as §1

The test system of data set [4] is PC-3 cells. Described as above. It is filed as cell-based, human. To be noted: for pEC50: PC-3 2D monolayer, not washed, SRB at 96 h, n = 3. The protocol: as §1
Data set [5] can be described thus: Dark stability by UV-vis spectroscopy. Conditions: 24 h. In kind it is physicochemical.
Data set [6] deals with ITGAV knockdown U87MG cells (U87MG-kd). The experiment in a line: Cellular Ru uptake by ICP-MS, 2 h. In kind it is cell-based, human. Conditions: 10 μM, dark, normoxia, n = 3. The method, then: The uptake studies in U87MG and U87MG-kd cell lines were conducted as follows: 2 × 10^5 cells were cultured in 6-well plates for 24 h in Opti-MEM (2 mL), after which cells were incubated with Δ-[1]Cl2 or Δ-[3]Cl2 (10 μM) for 2 h, washed with cold PBS twice, harvested, concentrated in 200 μL of PBS, and counted using trypan blue and a cell counter (Bio-Rad). Finally, cell pellets were collected in 1.5 mL Eppendorf tubes after removing additional PBS by centrifuging at 500g; 0.25 mL of 65% HNO3 was then added to each tube, and all tubes were kept at room temperature (RT) overnight. The cell lysates were transferred to 15 mL centrifuge tubes (Biologix) and filled with 4.75 mL of MilliQ H2O.
The ruthenium concentration was measured in each sample by ICP-MS (NexION 2000, PerkinElmer), providing the metal content in each well in ppb. Combining the cell numbers and Ru uptake, averaging over technical triplicates, the ruthenium uptake values were finally expressed in μg Ru/million cells.

Setting [7] is: 1% O2, dark, 24 h treatment, SRB at 96 h, read-out: EC50,dark.
Setting [8] is: 1% O2, 520 nm, 7.22 mW/cm^2, 13.1 J/cm^2, 30 min, SRB at 96 h, read-out: EC50,light.
Setting [9] is: 21% O2, dark, 24 h treatment, SRB at t = 96 h, read-out: EC50,dark.
[10] abbreviates: 21% O2, 24 h treatment, 520 nm, 10.9 mW/cm^2, 13.1 J/cm^2, 20 min, SRB at 96 h, read-out: EC50,light.
[11] abbreviates: 1% O2, dark, 24 h treatment, read-out: EC50,dark.
[12] abbreviates: 1% O2, 520 nm, 7.22 mW/cm^2, 13.1 J/cm^2, 30 min, read-out: EC50,light.
Setting [13] is: 21% O2, dark, 24 h treatment, read-out: EC50,dark.
Setting [14] is: 21% O2, 520 nm, 10.9 mW/cm^2, 13.1 J/cm^2, 20 min, read-out: EC50,light.

pEC50: −log10 of the molar value. Where two headings read alike, the source gives them in different places.

What is called pEC50 is −log10 of the EC50, conventionally taken in molar units. Consider “[Ru(Ph2phen)2(κ^S,κ^N-(Ac-MRGDH-NH2))]Cl2 (sidechain bridge or staple) [Λ-[1]Cl2] [cyclic ruthenium-peptide conjugate, Ac-MRGDH-NH2 coordinated via Met S and His N]”, for which, in data set [1] (50 μM in Opti-MEM with 2.5% FCS, 24 h (Figure S20)), the “nanoparticle formation (DLS)” value is “Nanoparticles of similar size were observed”. Moreover, the pEC50 in data set [2] (setting [7]) is 4.29; in data set [2] (setting [8]), 4.72; in data set [2] (setting [9]), 4.18; in data set [2] (setting [10]) it was 5.30; in data set [3] (setting [11]), 4.38; in data set [3] (setting [12]) it was 4.72. For the same substance, the pEC50 in data set [3] (setting [13]) was 4.38; in data set [3] (setting [14]), 5.42; in data set [4] (setting [11]), 4.13; in data set [4] (setting [12]), 4.33; in data set [4] (setting [13]), 4.18; in data set [4] (setting [14]), 5.28. The “PI (EC50,dark/EC50,light)” value came to 2.7 in data set [2] (A549, 1% O2); 13 in data set [2] (A549, 21% O2); 2.2 in data set [3] (1% O2); 1.5 in data set [4] (PC-3, 1% O2); 12 in data set [4] (PC-3, 21% O2).

In the case of “[Ru(Ph2phen)2(κ^S,κ^N-(Ac-MRGDH-NH2))]Cl2 (sidechain bridge or staple) [Δ-[1]Cl2] [cyclic ruthenium-peptide conjugate, Ac-MRGDH-NH2 coordinated via Met S and His N]”, the DLS size distribution entry in data set [1] (50 μM in Opti-MEM with 2.5% FCS) is recorded as “around 100 nm”; in data set [1] (50 μM in Opti-MEM without FCS), “above 1 μm”. In addition, in data set [5] (50 μM in Opti-MEM containing 2.5% FCS, UV-vis), the “dark stability, absorbance spectra” value is recorded as “did not show any variation for 24 h”. For the same substance, the “intensity of the UV-vis spectrum” value in data set [5] (50 μM in Opti-MEM deprived of FCS) is reported as “gradually decreased, suggesting precipitation”. For the same substance, in data set [6], the “uptake amount compared to U87MG-wt cells” value is “significantly decreased”. For the same substance, the pEC50 in data set [2] (setting [7]) was 4.30; in data set [2] (setting [8]), 4.76; in data set [2] (setting [9]), 4.14; in data set [2] (setting [10]), 5.37; in data set [3] (setting [11]) it was 4.37; in data set [3] (setting [12]) it was 4.73. Also, the pEC50 in data set [3] (setting [13]) was 4.40; in data set [3] (setting [14]) it was 5.44; in data set [4] (setting [11]), 4.21; in data set [4] (setting [12]) it was 4.29; in data set [4] (setting [13]), 4.28; in data set [4] (setting [14]), 5.22. Besides, the “PI (EC50,dark/EC50,light)” value was found to be 2.9 in data set [2] (A549, 1% O2); 17 in data set [2] (A549, 21% O2); 2.3 in data set [3] (1% O2); 11 in data set [3] (21% O2); 1.2 in data set [4] (PC-3, 1% O2); 9 in data set [4] (PC-3, 21% O2).
